pEC50: −log10 of the molar value. Where two headings read alike, the source gives them in different places.
Tests used:
human BRS3 = molecular target: T1, human BRS3 (Homo sapiens, UniProt P32247); assay: Cytosolic Ca++ mobilization assay in U2OS cells expressing BRS3; assay type: cell-based; conditions: for magnitude of released calcium and time to reach the peak of the transient: dose response
T1 construct: expressed in transfected cells; host or cells: U2OS
T1 sequence (P32247 1-399): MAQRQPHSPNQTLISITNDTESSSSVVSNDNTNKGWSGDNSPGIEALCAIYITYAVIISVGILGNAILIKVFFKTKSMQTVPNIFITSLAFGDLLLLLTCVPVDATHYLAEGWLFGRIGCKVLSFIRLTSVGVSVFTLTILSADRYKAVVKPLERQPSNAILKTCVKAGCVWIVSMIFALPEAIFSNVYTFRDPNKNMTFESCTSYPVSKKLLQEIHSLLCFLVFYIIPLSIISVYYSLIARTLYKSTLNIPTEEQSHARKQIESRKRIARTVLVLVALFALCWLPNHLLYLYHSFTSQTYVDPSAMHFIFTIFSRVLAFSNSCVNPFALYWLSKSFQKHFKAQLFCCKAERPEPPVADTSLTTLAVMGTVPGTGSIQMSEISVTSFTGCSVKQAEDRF
Procedure: Fluorescence was measured at dual excitation wavelengths of 340 nm and 380 nm, using an emission wavelength of 510 nm. Autofluorescence was corrected for by running a sample of unlabeled cells in identical experimental conditions.

BRS3 = BRS3 (Homo sapiens, UniProt P32247); assay: cell-based
From the text: Formation of the arrestin-receptor complex occurred as the agonist bind to the receptor and it is able to trace the translocation of this complex from plasma membrane to cytoplasm in a form of endocytoplamic vesicles. Monitoring the distribution and translocation of GFP-labeled arrestin in cell expressing BRS3, we are able to measure the ability of the crude extracts to activate BRS3.

GRPR = GRPR (Homo sapiens, UniProt P30550); assay: cell-based; conditions: Table 6
NMBR = NMBR (Homo sapiens, UniProt P28336); assay: cell-based; conditions: Table 6
[1] = tested on: U2OS cells that does not express BRS3
Procedure: After two washes with assay buffer, 2 ml of cell suspension were placed in a Delta PTI Scan 1 spectrofluorimeter (Photon Technology International, South Brunswick, N.J.) equipped with a stir bar and water bath (37° C.). Fluorescence was measured at dual excitation wavelengths of 340 nm and 380 nm, using an emission wavelength of 510 nm. Autofluorescence was corrected for by running a sample of unlabeled cells in identical experimental conditions.

[2] = Table 5, U2OS cells expressing human BRS3, read-out: EC50 Ca++

Chain of GRPR (P30550 whole entry, species assumed): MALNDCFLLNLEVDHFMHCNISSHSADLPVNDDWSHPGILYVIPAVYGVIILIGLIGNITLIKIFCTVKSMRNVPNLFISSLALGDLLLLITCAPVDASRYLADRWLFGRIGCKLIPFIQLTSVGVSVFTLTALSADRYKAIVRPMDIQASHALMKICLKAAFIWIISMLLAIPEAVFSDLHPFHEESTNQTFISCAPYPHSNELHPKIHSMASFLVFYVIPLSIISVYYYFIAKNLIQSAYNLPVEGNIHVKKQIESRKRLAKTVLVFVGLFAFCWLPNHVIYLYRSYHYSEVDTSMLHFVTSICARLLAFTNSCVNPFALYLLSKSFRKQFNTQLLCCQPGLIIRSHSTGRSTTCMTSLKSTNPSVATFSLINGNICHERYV
Chain of NMBR (P28336 whole entry, species assumed): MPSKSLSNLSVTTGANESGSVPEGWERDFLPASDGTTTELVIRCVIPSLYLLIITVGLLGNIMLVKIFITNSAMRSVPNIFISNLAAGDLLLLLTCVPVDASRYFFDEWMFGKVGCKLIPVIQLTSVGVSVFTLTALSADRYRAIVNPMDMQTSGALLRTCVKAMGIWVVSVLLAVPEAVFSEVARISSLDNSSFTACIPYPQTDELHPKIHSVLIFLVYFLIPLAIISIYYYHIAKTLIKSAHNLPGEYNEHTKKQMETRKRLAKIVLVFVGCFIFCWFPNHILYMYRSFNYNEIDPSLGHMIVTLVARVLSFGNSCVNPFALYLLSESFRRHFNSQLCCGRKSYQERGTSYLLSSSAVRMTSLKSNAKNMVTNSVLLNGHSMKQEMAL

| Compound | pEC50 (human BRS3) | pEC50 (BRS3; EC50 Arrestin, Table 5) | pEC50 (GRPR) | pEC50 (human BRS3; [2]) | magnitude of released calcium and time to reach the peak of the transient (human BRS3) | pEC50 (BRS3; EC50 BRS3, Table 6) | pEC50 (NMBR) | cytosolic Ca++ release in cells without BRS3 [1] | time of return of cytosolic calcium to basal levels (human BRS3; 6.8 μg/ml) [min] | time to maximal level of cytosolic calcium (human BRS3; 6.8 μg/ml) [s] | time of return of cytosolic calcium to basal levels (human BRS3; 25 μg/ml) [min] | time to maximal level of cytosolic calcium (human BRS3; 25 μg/ml) [s] |
| --- | --- | --- | --- | --- | --- | --- | --- | --- | --- | --- | --- | --- |
| CC(C)C(=O)O[C@H]1[C@H]2[C@@H](C[C@@H](C)[C@@H]3C=CC(=O)[C@]31C)OC(=O)[C@@H]2C [Compound 2, Arnicolide C] | 4.92 | 5.55 |  |  |  |  |  |  |  |  |  |  |
| CCC(C)C(=O)O[C@H]1[C@@H]2[C@H](C)C(=O)O[C@@H]2C[C@@H](C)C2[C@@H](O)CC(=O)[C@]21C (some centres unmarked) [Compound A, arnifoline] |  | 5.57 | < 2.87 | 5.59 | concentration-dependent and saturable | 5.56 | < 2.87 |  |  |  |  |  |
| CC=C(C)C(=O)OC1C2C(CC(C)C3C=CC(=O)C31C)OC(=O)C2C (centres unmarked) [Compound 3, Microhelenin C] | 4.96 | 5.70 |  |  |  |  |  |  |  |  |  |  |
| CCC(C)C(=O)O[C@H]1[C@H]2[C@@H](C[C@@H](C)C3C=CC(=O)[C@]31C)OC(=O)[C@@H]2C (some centres unmarked) [Compound 4, Microhelenin B] | 5.38 | 5.63 | < 3.07 |  | concentration-dependent and saturable | 5.43 | < 3.07 | not able to stimulated cytosolic Ca^++ release | 1 | 13 |  |  |
| CC(C)CC(=O)O[C@H]1[C@H]2[C@@H](C[C@@H](C)[C@@H]3C=CC(=O)[C@]31C)OC(=O)[C@@H]2C [Compound 5, Arnicolide B] | 4.70 | 5.12 |  |  |  |  |  |  |  |  |  |  |
| CCC(C)C(=O)O[C@H]1[C@@H]2[C@H](C)C(=O)O[C@@H]2C[C@@H](C)C2[C@@H](C)CC(=O)[C@]21C (stereo partly drawn) [Compound B, 11α-13-dihydroarnifolin B] |  | 4.85 | < 3.16 | 5.02 | concentration-dependent and saturable | 4.86 | < 3.08 | not able to stimulated cytosolic Ca^++ release |  |  | 1 | 13 |
| C=C(C)C(=O)O[C@H]1[C@H]2[C@@H](C[C@@H](C)[C@@H]3C=CC(=O)[C@]31C)OC(=O)[C@@H]2C [Compound 1, Arnicolide D] | 5.00 | 5.55 |  |  |  |  |  |  |  |  |  |  |

Reference: patent US20120156314A1, “11 beta, 13-DIHYDROHELENALIN DERIVATIVES AND USES THEREOF AS BOMBESIN RECEPTOR SUBTYPE 3 AGNOISTS” (VIOGENE-BIOTEK CORPORATION, priority 2010, published 2012)
